We go through four compounds from patent US9260486B2 (The University of Vermont and State Agricultural College, priority 2012, dated 2016).

Assay [1] deals with T1, PKG Iα (Bos taurus, UniProt P00516).
T1 construct: made in house
T1 sequence (P00516 1-671): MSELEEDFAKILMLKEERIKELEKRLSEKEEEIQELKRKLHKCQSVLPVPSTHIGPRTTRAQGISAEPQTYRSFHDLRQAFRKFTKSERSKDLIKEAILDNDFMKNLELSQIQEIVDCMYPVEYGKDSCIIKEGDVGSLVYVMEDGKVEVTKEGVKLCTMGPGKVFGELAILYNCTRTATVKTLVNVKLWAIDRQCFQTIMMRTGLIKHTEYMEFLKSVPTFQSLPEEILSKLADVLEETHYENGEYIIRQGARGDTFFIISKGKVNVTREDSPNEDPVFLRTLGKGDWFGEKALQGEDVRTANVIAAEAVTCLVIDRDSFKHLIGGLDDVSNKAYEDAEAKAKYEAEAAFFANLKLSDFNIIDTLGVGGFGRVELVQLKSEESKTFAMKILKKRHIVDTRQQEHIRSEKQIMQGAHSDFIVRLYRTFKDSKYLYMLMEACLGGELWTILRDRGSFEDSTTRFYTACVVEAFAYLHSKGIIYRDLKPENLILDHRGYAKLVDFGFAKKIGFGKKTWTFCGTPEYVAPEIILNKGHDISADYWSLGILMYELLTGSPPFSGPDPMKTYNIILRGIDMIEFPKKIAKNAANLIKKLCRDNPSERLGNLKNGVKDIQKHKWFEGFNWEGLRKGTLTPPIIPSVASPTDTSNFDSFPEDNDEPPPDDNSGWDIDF
Put plainly: 32P-incorporation assay, activation of PKG Iα by SW peptides. Format: biochemical. An excerpt:
Starting with the 29-mer peptide (329-358), covering the full length of the switch helix, an array of peptide derivatives were synthesized to study the contributions from different segments of the SW helix peptide towards the functional phenotype of PKG Iα. Circular dichroism spectroscopy confirmed that the 29-mer SW peptide adopted a helical secondary structure. […] The activity of this short peptide is surprising. To activate the kinase, this non-helical 8-mer peptide first has to adopt the active helical conformation to activate PKG. However, this finding provides critical support in favor that the confined knob/nest interaction site may serve as a novel target site for non-cyclic nucleotide driven activation of PKG.
The isolation of the SW independent from the kinase allows us to discretely probe the nest in future studies using native and non-native amino acids. Moreover, the use of the SW: 329-358 allows us to answer more fundamental questions about the nature of the regulatory and catalytic domains and the communication between the B-site and the nest. […] The structure of this inhibitor contains a β-phenyl-1,N^2-etheno group attached to the pyrimidine ring. We hypothesized previously, based upon structural observations, that the presence of this phenyl group in the syn orientation effectively blocks PBC closure and reduces the potency of the SW:329-358 in a dose-dependent manner.
Determination of activation constants was performed using a [γ-^32P]-ATP transfer assay as previously reported (Ruth et al., 1991; Tegge et al., 1995). […] Aliquots, spotted on P81 Whatman paper were subjected to scintillation counting. All experiments were performed in the presence of the PKA-specific inhibitor, PKI^5-24 (70 nM) to suppress endogenous PKA activity.

Assay [2] deals with T1, PKG Iα. To be noted: Butt et al., 1995; cited from earlier work.
For another assay, the system named is KCa1.1 channels. In words: Inside-out patch clamp, open probability of single KCa1.1 channels in membrane patches from VSM cells reconstituted with recombinant PKG. Format: cell-based. To be noted: rat posterior cerebral artery VSM cells, with PKG Iα and ATP. The source says:
FIG. 4: SW:329-358 activates single KCa channels in inside-out membrane patches excised from cerebral artery myocytes.
Once we had supporting evidence that molecules carrying the knob-type ligand conformation were capable of activating PKG we set out to determine if this novel mechanism of kinase activation was functionally relevant. The high conductance calcium-activated potassium channel KCa1.1 is a well-established intracellular target of […] in vascular smooth muscle (VSM) cells. Using inside-out patch clamp configurations from freshly dissociated VSM cells from rat posterior cerebral arteries, we measured the changes of open probability (NPO) of single KCa1.1 channels in response to PKG stimulation in membrane patches excised from freshly-dissociated vascular smooth muscle cells (FIG. 4).
Background: In patch-clamp work, channel activity is measured electrically.

Residues, ends and D or L forms follow the SMILES beside them.

In the case of `CC(C)C[C@H](NC(=O)[C@H](CC(N)=O)NC(=O)[C@H](C)NC(=O)[C@H](Cc1ccccc1)NC(=O)[C@H](Cc1ccccc1)NC(=O)[C@H](C)NC(=O)[C@H](C)N)C(=O)N[C@@H](CCCCN)C(=O)O` [SW:348-355] (H-AAFFANLK-OH; N-terminus and C-terminus assumed), the Emax on PKG Iα [1] (read-out: activation relative to activation associated with cGMP, 8-mer knob peptide) came to 30%.
Take `O=c1c2nc(Br)n([C@@H]3O[C@@H]4CO[P@@](O)(=S)O[C@H]4[C@H]3O)c2nc2[nH]c(-c3ccccc3)cn12` [Rp-PET, (RP)-8-Br-PET-cGMPS]: the “effect of Rp-PET on activation constant of PKG Iα by SW:329-358” value on PKG Iα [1] (Rp-PET titrated into activation reactions) is “linear response of the activation constant to the amount of Rp-PET titrated”. Moreover, the “affinity for PKG Iα regulatory domain binding sites relative to cGMP” value at PKG Iα [2] was “higher affinity for the PHG Iα regulatory domain binding sites than cGMP”.
In the case of `Nc1nc2c(ncn2[C@@H]2O[C@@H]3COP(=O)(O)O[C@H]3[C@H]2O)c(=O)[nH]1` [cGMP], in the assay on KCa1.1 channels, the “KCa1.1 channel open probability (NPO)” value was “significantly increased”.
As for “SW:329-349: SW-peptide derivative with additional removal of the knob residues (DVSNKAYEDAEAKAKYEAEAA)”, the “activation of PKG Iα” value in the assay with PKG Iα [1] (under cGMP priming conditions) is “completely inactive”.
